Measurements: patent US8273719B2, “Wrinkle-diminishing agent” (Kao Corporation, priority 2004, dated 2012)

Tested on: skin which had suffered from photoaging
Experiment: Wrinkle alleviating effect on photoaged (UVA/UVB irradiated) hairless mice: wrinkle score, dermis collagen content, epidermis thickness
Type: in vivo
Text: The wrinkle alleviating effect of the antiwrinkle agent of the present invention when applied to a skin which had suffered from photoaging was examined by the following test method. A group of ten hairless mice which were ten weeks old at the start of the test was used. Photoaging was caused by irradiating the mice with UVA and UVB once a day and five times per week for continuous eight weeks. A UVA dose of 20 J/cm^2 was increased to 25 J/cm^2 and then 30 J/cm^2 every week, and a UVB dose of 20 mJ/cm^2 was increased to 30 mJ/cm^2 and then 40 mJ/cm^2 every week, and the respective maximum doses were used on and after the third week. The wrinkle alleviating effect was evaluated in respect of the wrinkle score, the dermis collagen content and the epidermis thickness. […] Specifically, the wrinkles were macroscopically evaluated with respect to the size and depth and rated in 4 stages: “large and deep wrinkles can be recognized” was rated 3, “some wrinkles can be recognized” was rated 2, “any wrinkles cannot be recognized” was rated 1, and “normal and fine skin is observed” was rated 0. Whole skin was sampled and homogenized by a POLYTRON Homogenizer (manufactured by KINEMATICA AG), and then the collagen fraction was extracted and subjected to acid hydrolysis followed by quantitative determination of a hydroxyproline content using an amino acid analyzer (manufactured by JASCO Corporation). […]

Structure (SMILES) | Wrinkle alleviating effect on the wrinkles caused by the photoaging (overall conclusion in words) | Epidermis thickness, effect compared to Comparative Example 1 (base only) (result in words)
C=CCc1ccc(O)c(OC)c1 [eugenol] | does not have a wrinkle alleviating effect | 
C=CCc1ccc(O[C@@H]2O[C@H](CO)[C@@H](O)[C@H](O)[C@H]2O)c(OC)c1 [eugenyl glycoside, eugenyl-β-D-glucoside] |  | had no such an action
